Reference: US20160032401A1, “Glycine, Mitochondrial One-Carbon Metabolism, and Cancer” (THE GENERAL HOSPITAL CORPORATION, priority 2013, published 2016)
Changes are numbered by the printed parent chain. Where two headings read alike, the source gives them in different places.

How the values were obtained:
MTHFD2 [1] = target: T1, MTHFD2 (Homo sapiens, UniProt P13995); assay: Enzyme kinetics of recombinant MTHFD2 in the modified 384 well assay; assay type: biochemical; conditions: recombinant MTHFD2, 384 well plate format; read-out: Km, Measured
T1 construct: 12 amino acids were removed from the unstructured C-terminus of the protein, and a 6-histidine tag added to facilitate purification; 6-histidine tag (C); made in house; host or cells: E. coli One Shot BL21 Star (DE3), pET-30a(+)
T1 sequence (P13995 with tags, fused parts or gaps): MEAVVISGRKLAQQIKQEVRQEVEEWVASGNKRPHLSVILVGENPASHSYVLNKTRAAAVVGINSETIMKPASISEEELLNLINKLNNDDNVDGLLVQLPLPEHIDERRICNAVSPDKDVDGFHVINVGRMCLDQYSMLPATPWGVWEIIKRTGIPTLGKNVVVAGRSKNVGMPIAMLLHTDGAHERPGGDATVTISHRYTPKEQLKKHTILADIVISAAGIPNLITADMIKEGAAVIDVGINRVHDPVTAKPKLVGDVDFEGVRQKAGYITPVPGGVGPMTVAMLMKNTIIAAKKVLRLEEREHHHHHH
Description: (§1) The NAD-dependent methylenetetrahydrofolate dehydrogenase/cyclohydrolase activity assay employed in this microtiter well based screen is based on previously published enzymatic assays, with modifications as listed below. The assay was initially reported by Scrimgeour and Huennekens, Biochem. Biophys. Res. Commun. 1960, 2:230-233 and subsequently by Mejia and MacKenzie, The Journal of biological chemistry. 1985; 260:14616-14620). The assay was performed as described with slight modifications (reported assay concentrations in the Mejia et al. assay are provided in brackets below). The modified assay utilized 50 ng of recombinant MTHFD2 protein produced as described in Example 11 per well in 384 well format. In addition, the present assay utilized 30 […], at pH 7.5 (7.3), with 150 uM formaldehyde (2.5 mM), 150 uM tetrahydrofolate (250 uM) and 6 mM MgCl (5 mM). No 2-mercaptoethanol or reducing agents were used in the present assay, which is crucial for detection of cysteine modifying compounds as potential enzyme inhibitors. The assay employed for high-throughput screening for chemical inhibitors used the final endpoint measure of formation of 5,10-methenyltetrahydrofolate by spectrophotometric absorbance at 340 nm.

MTHFD2 [2] = target: T1, MTHFD2; conditions: published values (Yang and MacKenzie 1993); cited from earlier work
[3] = target: T2, recombinant MTHFD2 protein (human, wild type) (Homo sapiens, UniProt P13995); assay: NAD-dependent methylenetetrahydrofolate dehydrogenase/cyclohydrolase activity assay, 384 well, no reducing agents; assay type: biochemical; conditions: for inhibition of MTHFD2 enzyme in high throughput screen: screen of about 5,100 small molecules, biological duplicate, no reducing agents
T2 construct: 12 amino acids were removed from the unstructured C-terminus of the protein, and a 6-histidine tag added to facilitate purification; 6-histidine tag (C); made in house; host or cells: E. coli One Shot BL21 Star (DE3), pET-30a(+)
T2 sequence (P13995 with tags, fused parts or gaps): T1 sequence (P13995 with tags, fused parts or gaps)
Description: as §1
The assay described in Example 12 was used to screen a library of about 5,100 small molecule agents in the Prestwick chemical library, Known Bioactives Library and Library of Pharmacologically Active Compounds, in biological duplicate. […] Several of the high scoring inhibitors are known cysteine modifiers that could in principle inhibit enzyme activity by modification of cysteine residues.
Three mutant MTHFD2 constructs were generated with Agilent QuikChange Lightening, with cysteine to serine mutations at C145, C166 or both C145/C166. These mutants were retested with three of the compounds identified in the secondary screen (6-hydroxy-DL-DOPA, Celastrol, and Ebselen). […] Given the identification of these cysteine residues, additional structure/medicinal chemistry may be employed to specifically design small molecules that take advantage of these cysteine residues and inhibit MTHFD2 with greater selectivity.

NCI-60 cancer cell lines = assay: Association between glycine consumption and compound sensitivity (GI50) across the 60 cell lines; assay type: cell-based, human; conditions: NCI public data, FIG. 3
From the text: Compound sensitivity data for glutathione biosynthesis and de novo purine biosynthesis inhibitors was obtained from the NCI data repository (October 2009 release). Compound sensitivity was quantified using the GI50 measure (Shoemaker, Nat Rev Cancer. 2006; 6:813-823), defined as the compound concentration inhibiting cell growth by 50%. For those compounds in which multiple experiments with different concentration ranges were available, the experiment with the least degree of saturation was used.
Given the observation that glycine consumption is correlated to rapid cancer cell proliferation (see Examples 1-5, above), the present inventors sought to determine whether glycine consumption predicts sensitivity to particular chemotherapeutic agents. The association between glycine update and sensitivity to 3851 annotated small molecules (data provided to the public by NCI) was examined bioinformatically across the 60 cell lines.

LOX IMVI cells = assay: Rescue of SHMT2-silenced LOX IMVI cells grown in the absence of glycine; assay type: cell-based, human; conditions: supplement 140 μM
Description: (§2) For lentiviral infection, 100,000 cells were seeded in a 6-well dish in 2 mL medium containing 8 μg/ml Polybrene and 100 μl viral supernatant added. Plates were centrifuged at 800×g for 30 minutes at 37° C., and the medium replaced. Twenty-four hours later, cells were selected for infection by the addition of 2 μg/ml puromycin. […] Cells were passaged for >10 cell divisions to ensure stable expression of the shRNA construct. For assessment of SHMT2 knockdown, mRNA was isolated from cells using RNeasy kit (Qiagen), and qRT-PCR was performed for SHMT2 and HPRT1 using the Taqman assay (Applied Biosystems assay ID Hs00193658_m1* and Hs01003267_m1*, respectively), according to manufacturer's instructions. For experiments using A498 and LOX IMVI, cells were infected with either sh1-4 or shCtrl lentivirus and stable expressing cells selected as above. For experiments utilizing NCI-H226, HS-578T, TK10, EKVX, OVCAR-8, U251, A549, HT29, NCI-460 and HCT-116, cells were infected with either sh4 or shCtrl lentivirus and stable expressing cells selected as above. […] For all experiments, cells were counted and cell counts expressed as fold change over time. […] Cells were counted at regular time intervals as described above. All experiments were performed using at least 10 independent cell cultures.

[4] = test system: 10 additional primary cancer cell lines from the NCI-60 panel; conditions: FIG. 1G
Description: as §2

MTHFD2 C166S mutant = target: T3, MTHFD2 C166S mutant (Homo sapiens, UniProt P13995, C166S); assay: Same activity assay on MTHFD2 C166 cysteine to serine mutant; assay type: biochemical
T3 construct: 12 amino acids were removed from the unstructured C-terminus of the protein, and a 6-histidine tag added to facilitate purification; 6-histidine tag (C); made in house
T3 sequence (P13995 with tags, fused parts or gaps C166S): T1 sequence (P13995 with tags, fused parts or gaps) with C132S
Description: as §1, with “nm. […]” for “nm.”

MTHFD2 C145S mutant = target: T4, MTHFD2 C145S mutant (Homo sapiens, UniProt P13995, C145S); assay: Same activity assay on MTHFD2 C145 cysteine to serine mutant; assay type: biochemical
T4 construct: 12 amino acids were removed from the unstructured C-terminus of the protein, and a 6-histidine tag added to facilitate purification; 6-histidine tag (C); made in house
T4 sequence (P13995 with tags, fused parts or gaps C145S): T1 sequence (P13995 with tags, fused parts or gaps) with C111S
Description: as §1, with “nm. […]” for “nm.”

[5] = target: T5, MTHFD2 C145S/C166S mutant (Homo sapiens, UniProt P13995, C145S/C166S); assay: Same activity assay on MTHFD2 C145/C166 double mutant; assay type: biochemical
T5 construct: 12 amino acids were removed from the unstructured C-terminus of the protein, and a 6-histidine tag added to facilitate purification; 6-histidine tag (C); made in house
T5 sequence (P13995 with tags, fused parts or gaps C145S/C166S): T1 sequence (P13995 with tags, fused parts or gaps) with C111S, C132S
Description: as §1, with “nm. […]” for “nm.”

SMILES: Nc1nc2c(c(=O)[nH]1)N1CN(c3ccc(C(=O)N[C@@H](CCC(=O)O)C(=O)O)cc3)CC1CN2 (some centres unmarked) [5,10 CH2—THF]
- Km (MTHFD2 [1]): 4.1 µM
- Km (MTHFD2 [2]): 6.7 µM

SMILES: NC(=O)c1ccc[n+]([C@@H]2O[C@H](COP(=O)([O-])OP(=O)(O)OC[C@H]3O[C@@H](n4cnc5c(N)ncnc54)[C@H](O)[C@@H]3O)[C@@H](O)[C@H]2O)c1 [NAD+]
- Km (MTHFD2 [1]): 51.5 µM
- Km (MTHFD2 [2]): 56.4 µM

SMILES: O=C1Nc2ccc(I)cc2/C1=C/c1cc(Br)c(O)c(Br)c1 [GW5074]
- inhibition of MTHFD2 enzyme in high throughput screen [3]: inhibit the enzyme

SMILES: CN(Cc1cnc2nc(N)nc(N)c2n1)c1ccc(C(=O)N[C@@H](CCC(=O)O)C(=O)O)cc1 [methotrexate, Glutamic acid, N-[p-[[(2,4-diamino-6-pteridinyl)methyl]methylamino]benzoyl]-, L-(+)-(8CI)]
- sensitivity of glycine consuming cells to the agent (correlation of glycine consumption with sensitivity) (NCI-60 cancer cell lines): uniquely sensitive

SMILES: O=c1[nH]cc(F)c(=O)[nH]1 [5-fluorouracil]
- sensitivity of glycine consuming cells to the agent (correlation of glycine consumption with sensitivity) (NCI-60 cancer cell lines): not more sensitive

SMILES: Clc1ccc(C(c2ccc(Cl)cc2)n2cc[n+](CC(OCc3ccc(Cl)cc3Cl)c3ccc(Cl)cc3Cl)c2)cc1 (centres unmarked) [calmidazolium chloride]
- inhibition of MTHFD2 enzyme in high throughput screen [3]: inhibit the enzyme

SMILES: NCC(=O)O [glycine]
- rescue of proliferation of SHMT2-silenced LOX IMVI cells (LOX IMVI cells): rescued
- rescue by addition of extracellular glycine in rapidly proliferating SHMT2-silenced cancer cells [4]: rescued

SMILES: O=CO [formate]
- rescue of proliferation of SHMT2-silenced LOX IMVI cells (LOX IMVI cells): failed to rescue

SMILES: C=CC1=C(C)c2cc3[nH]c(cc4nc(cc5[nH]c(cc1n2)c(C)c5CCC(=O)O)C(CCC(=O)O)=C4C)c(C)c3C=C [protoporphyrin IX disodium]
- inhibition of MTHFD2 enzyme in high throughput screen [3]: inhibit the enzyme

SMILES: NC(Cc1cc(O)c(O)cc1O)C(=O)O (stereo not drawn) [6-hydroxy-DL DOPA]
- inhibition of wild type MTHFD2 with addition of the reducing agent DTT ([3]; plus DTT): not antagonized
- inhibition of wild type MTHFD2 ([3]; retest with mutants, FIGS. 9A-C): inhibited
- inhibition of MTHFD2 enzyme in high throughput screen [3]: inhibit the enzyme
- inhibition of C166 mutant MTHFD2 (MTHFD2 C166S mutant): inhibited
- inhibition of C145 mutant MTHFD2 (MTHFD2 C145S mutant): inhibited
- inhibition of C145/C166 double mutant MTHFD2 [5]: inhibited

SMILES: O=C1C=CC(=O)C=C1 [para-benzoquinone]
- inhibition of MTHFD2 enzyme in high throughput screen [3]: inhibit the enzyme

SMILES: NC(=O)CI [iodoacetamide]
- inhibition of MTHFD2 enzyme in high throughput screen [3]: inhibit the enzyme
